Assay results taken from patent US8349553B2, “Jasmonate based assays for identifying compounds that selectively inhibit mitochondrial bound hexokinases” (Ramot at Tel Aviv University Ltd., priority 2007, dated 2013).

Tests used:
BCL-1 leukemic cells = assay: Cellular ATP levels (CellTiter-Glo), BCL-1; format: cell-based, murine; conditions: 60 minutes of exposure, various concentrations
Protocol: (§1) The CellTiter-Glo™ Luminescent Cell Viability Assay (Promega, Madison, Wis., U.S.A.) was employed (Fingrut, 2005). Upon completion of a given experiment, plates were equilibrated to room temperature. CellTiter-Glo™ reagent containing luciferin and luciferase was added to each well and the plates were mixed on an orbital shaker for 2 minutes to induce cell lysis. In the presence of ATP, Mg^2+ and molecular oxygen, mono-oxidation of luciferin is catalyzed by luciferase, generating a luminescence signal. Cells were then incubated for 10 minutes at room temperature to stabilize the luminescence signal. Luminescence was recorded using Kodak digital science—Image station 440 CD. Luminescence is directly proportional to ATP concentration. ATP depletion (% of control) was calculated in the following way: {(luminescence of control cells−luminescence of drug-treated cells)/luminescence of control cells}×100. In order to test the correlation between cellular ATP levels and the release of hexokinase from mitochondrial fraction different cancer cells, namely Molt-4 cells, BCL-1 leukemic cells and B16 melanoma tumors were exposed to various methyl jasmonate concentrations. […] CT26 and Molt-4 cells were then seeded in 24 well plates. CT26 cells were allowed to adhere over night. Cells were exposed to methyl jasmonate (MJ; 3 mM) for 1 hour. Trypan blue exclusion test was performed and cells were counted.

[1] = tested on: HKI and HKII (mitochondrial fraction of B16 tumors); assay: Western blot of supernatants with anti-HKI and anti-HKII, B16 tumor mitochondrial fraction; format: biochemical, murine; conditions: B16 tumor mitochondrial fraction supernatant
Protocol: (§2) For analysis of hexokinase levels, the experiments were performed similarly to hexokinase detachment assay described above, and unbound hexokinase in the supernatant fraction was extracted as described in Fingrut (2005). Samples were separated by sodium dodecylsulfate-polyacrylamide gel (7%) electrophoresis followed by immunoblotting. The blots were probed with specific anti-HKI or anti-HKII antibodies (1:300, Santa-Cruz Biotechnology, CA, USA). Hexokinase-antibody complexes were stained with HRP-conjugated antibody (1:10,000, Santa-Cruz Biotechnology, CA, USA). Enhanced chemiluminescence (ECL) reagent (Biological Industries, Beit Haemek, Israel) was added, and the blots were exposed to ECL film (Eastman Kodak, Rochester, N.Y., USA). Hexokinase detachment from mitochondrial fraction is not limited to CT-26 colon carcinoma. Mitochondrial fractions isolated from different cancer cells, namely Molt-4 cells, BCL-1 leukemic cells and B16 melanoma tumors were incubated for 30 minutes at 37° C., and the activity of unbound hexokinase was measured and compared to the activity of spontaneously (control) detached hexokinase. […] The supernatant of the experiments were separated on SDS-PAGE and probed with anti-HKI and anti-HKII antibodies.

[2] = tested on: HKI and HKII (mitochondrial fraction of CT-26 tumor); assay: Western blot of supernatants with anti-HKI and anti-HKII, CT-26 tumor mitochondrial fraction; format: biochemical, murine
Protocol: For analysis of hexokinase levels, the experiments were performed similarly to hexokinase detachment assay described above, and unbound hexokinase in the supernatant fraction was extracted as described in Fingrut (2005). Samples were separated by sodium dodecylsulfate-polyacrylamide gel (7%) electrophoresis followed by immunoblotting. The blots were probed with specific anti-HKI or anti-HKII antibodies (1:300, Santa-Cruz Biotechnology, CA, USA). Hexokinase-antibody complexes were stained with HRP-conjugated antibody (1:10,000, Santa-Cruz Biotechnology, CA, USA). Enhanced chemiluminescence (ECL) reagent (Biological Industries, Beit Haemek, Israel) was added, and the blots were exposed to ECL film (Eastman Kodak, Rochester, N.Y., USA). In order to verify physical detachment of mitochondrial hexokinase, similar preparations were separated on SDS-PAGE, electroblotted to nitrocellulose membrane and probed with anti-HKI and anti-HKII antibodies.

lymphomas = conditions: mice; cited from earlier work
CT26 cells [3] = assay: Cellular ATP levels (CellTiter-Glo), CT26; format: cell-based, murine; conditions: 60 minutes of exposure, indicated concentrations (FIG. 4A)
Protocol: as §1

[4] = target: T1, mitochondria-bound hexokinase (mitochondrial fraction isolated from mouse brain) (Mus musculus, UniProt P17710); assay: Hexokinase detachment assay, mitochondrial fraction of mouse brain; format: biochemical
T1 construct: detach hexokinase from mitochondrial fraction isolated from mouse brain; from tissue; host or cells: mouse brain (mitochondrial fraction)
Protocol: To determine the amount of hexokinase detached from the mitochondrial fraction by different agents, mitochondria were incubated with the agent of interest and pelleted by centrifugation. Activity of hexokinase in the supernatant (i.e., activity of the detached hexokinase) was determined spectrophotometrically at 340 nm. The reaction couples the ADP formation by hexokinase, consuming the ADP for pyruvate formation by pyruvate kinase, and reducing the pyruvate with NADH by lactate dehydrogenase. Briefly, mitochondria were suspended in incubation buffer (HEPES pH 7.4 20 mM, Sucrose 0.25M, Glucose 10 mM, KCl5 mM, MgCl2 10 mM; 0.2 mg/test, 100 μL/test) and incubated as described below. Mitochondria-bound hexokinase was precipitated by centrifugation at 20,000 g for 10 minutes at 4° C. The activity of hexokinase in the supernatant fraction was assayed in reaction buffer (250 μL; HEPES pH 7.2 20 mM, MgCl2 5 mM, KCl 5 mM, glucose 10 mM) freshly supplemented with pyruvate kinase (1 U/ml), lactate dehydrogenase (1 U/ml), ATP (1 mM), phospho(enol)pyruvate (1 mM), NADH (0.18 mg/ml). […] Mitochondrial fractions were incubated for either 10, 30 or 60 minutes at 37° C. The activity of unbound hexokinase was measured and compared to the activity of spontaneously (control) detached hexokinase.

[5] = tested on: HKI and HKII (mitochondrial fraction of Molt-4 cells); assay: Western blot of supernatants with anti-HKI and anti-HKII, Molt-4 mitochondrial fraction; format: biochemical, human; conditions: Molt-4 mitochondrial fraction supernatant
Protocol: as §2

CT26 cells [6] = assay: Trypan blue exclusion test, CT26; format: cell-based, murine; conditions: 3 mM, 1 hour
Protocol: Cell death was determined by trypan blue exclusion. […] Alternatively, cytotoxicity was determined using hemacolor staining. […] In order to test the correlation between cellular ATP levels and the release of hexokinase from mitochondrial fraction different cancer cells, namely Molt-4 cells, BCL-1 leukemic cells and B16 melanoma tumors were exposed to various methyl jasmonate concentrations. […] CT26 and Molt-4 cells were then seeded in 24 well plates. CT26 cells were allowed to adhere over night. Cells were exposed to methyl jasmonate (MJ; 3 mM) for 1 hour. Trypan blue exclusion test was performed and cells were counted.

T1 sequence (P17710 1-918 isoform P17710-3): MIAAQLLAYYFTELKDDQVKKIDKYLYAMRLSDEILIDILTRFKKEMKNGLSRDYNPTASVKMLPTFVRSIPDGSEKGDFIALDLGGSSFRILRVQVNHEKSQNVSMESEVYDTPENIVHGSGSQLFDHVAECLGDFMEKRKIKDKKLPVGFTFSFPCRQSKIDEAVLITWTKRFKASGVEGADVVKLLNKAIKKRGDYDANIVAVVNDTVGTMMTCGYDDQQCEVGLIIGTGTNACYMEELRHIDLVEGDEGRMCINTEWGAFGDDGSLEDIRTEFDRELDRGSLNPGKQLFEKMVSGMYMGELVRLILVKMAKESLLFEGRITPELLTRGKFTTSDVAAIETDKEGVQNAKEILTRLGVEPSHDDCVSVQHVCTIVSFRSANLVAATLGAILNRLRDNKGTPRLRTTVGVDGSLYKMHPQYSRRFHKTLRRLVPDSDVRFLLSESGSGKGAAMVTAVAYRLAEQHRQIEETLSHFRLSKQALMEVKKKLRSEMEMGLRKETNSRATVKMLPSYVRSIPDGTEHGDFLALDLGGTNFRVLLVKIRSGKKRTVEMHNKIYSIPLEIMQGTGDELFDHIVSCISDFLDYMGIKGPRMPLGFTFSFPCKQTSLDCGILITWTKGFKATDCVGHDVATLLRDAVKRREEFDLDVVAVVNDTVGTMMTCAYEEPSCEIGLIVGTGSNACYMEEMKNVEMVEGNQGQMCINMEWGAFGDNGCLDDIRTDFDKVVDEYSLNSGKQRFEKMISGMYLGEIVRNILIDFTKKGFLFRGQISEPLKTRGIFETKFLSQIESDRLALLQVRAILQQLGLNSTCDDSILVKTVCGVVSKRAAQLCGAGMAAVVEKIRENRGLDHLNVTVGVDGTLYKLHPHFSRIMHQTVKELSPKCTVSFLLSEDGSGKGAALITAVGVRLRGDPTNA

- detachment of hexokinase, time dependence ([4]; 3 mM, 10, 30 or 60 minutes at 37° C.): time-dependent
- detachment of hexokinase, dose dependence ([4]; 30 minutes of incubation): dose dependent
SMILES: CC/C=C\CC1C(=O)CCC1CC(=O)OC (stereo not drawn) [methyl jasmonate]
- cellular ATP level (BCL-1 leukemic cells): significant and dose-dependent decrease of cellular ATP
- detachment of hexokinase confirmed by immunoblot (anti-HKI, anti-HKII) [1]: detachment of hexokinase from mitochondrial fraction of the various cancer cells was further confirmed
- physical release of HKI and HKII into supernatant (immunoblot) [2]: release of both HKI and HKII were demonstrated
- prevention of the development of lymphomas (lymphomas): effective in preventing the development of lymphomas in mice
- cellular ATP level (CT26 cells [3]): depletes cellular ATP
- detachment of hexokinase confirmed by immunoblot (anti-HKI, anti-HKII) [5]: detachment of hexokinase from mitochondrial fraction of the various cancer cells was further confirmed
- live/dead cells by Trypan blue exclusion (CT26 cells [6]): still alive after 60 minutes
